Target: T1, IKK heterodimer (rhIKK1/IKK2) (Homo sapiens, UniProt O14920+O15111)
T1 construct: made in house; host or cells: baculovirus-infected insect cells (SF9)
T1 sequence (O14920 1-756): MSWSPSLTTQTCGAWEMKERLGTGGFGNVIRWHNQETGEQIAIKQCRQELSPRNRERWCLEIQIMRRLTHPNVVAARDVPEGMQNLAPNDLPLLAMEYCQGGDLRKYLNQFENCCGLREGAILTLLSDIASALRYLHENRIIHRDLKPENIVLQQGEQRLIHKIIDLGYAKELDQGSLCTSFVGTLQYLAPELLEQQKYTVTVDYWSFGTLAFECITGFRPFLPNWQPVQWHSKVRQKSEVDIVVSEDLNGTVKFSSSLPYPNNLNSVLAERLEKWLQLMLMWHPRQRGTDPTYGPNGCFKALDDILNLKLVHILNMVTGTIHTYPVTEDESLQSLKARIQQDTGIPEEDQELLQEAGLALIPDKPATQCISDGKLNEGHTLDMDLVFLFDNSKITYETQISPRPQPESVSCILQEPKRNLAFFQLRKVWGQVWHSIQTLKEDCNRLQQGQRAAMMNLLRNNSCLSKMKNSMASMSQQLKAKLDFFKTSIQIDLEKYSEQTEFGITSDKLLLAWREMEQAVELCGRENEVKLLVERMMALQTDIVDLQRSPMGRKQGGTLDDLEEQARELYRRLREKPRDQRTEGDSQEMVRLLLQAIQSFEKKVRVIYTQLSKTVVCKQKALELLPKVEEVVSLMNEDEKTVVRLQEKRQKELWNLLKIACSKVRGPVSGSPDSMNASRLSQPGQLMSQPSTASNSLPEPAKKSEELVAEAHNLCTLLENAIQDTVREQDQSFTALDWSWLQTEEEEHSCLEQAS
T1 sequence (O15111 1-745): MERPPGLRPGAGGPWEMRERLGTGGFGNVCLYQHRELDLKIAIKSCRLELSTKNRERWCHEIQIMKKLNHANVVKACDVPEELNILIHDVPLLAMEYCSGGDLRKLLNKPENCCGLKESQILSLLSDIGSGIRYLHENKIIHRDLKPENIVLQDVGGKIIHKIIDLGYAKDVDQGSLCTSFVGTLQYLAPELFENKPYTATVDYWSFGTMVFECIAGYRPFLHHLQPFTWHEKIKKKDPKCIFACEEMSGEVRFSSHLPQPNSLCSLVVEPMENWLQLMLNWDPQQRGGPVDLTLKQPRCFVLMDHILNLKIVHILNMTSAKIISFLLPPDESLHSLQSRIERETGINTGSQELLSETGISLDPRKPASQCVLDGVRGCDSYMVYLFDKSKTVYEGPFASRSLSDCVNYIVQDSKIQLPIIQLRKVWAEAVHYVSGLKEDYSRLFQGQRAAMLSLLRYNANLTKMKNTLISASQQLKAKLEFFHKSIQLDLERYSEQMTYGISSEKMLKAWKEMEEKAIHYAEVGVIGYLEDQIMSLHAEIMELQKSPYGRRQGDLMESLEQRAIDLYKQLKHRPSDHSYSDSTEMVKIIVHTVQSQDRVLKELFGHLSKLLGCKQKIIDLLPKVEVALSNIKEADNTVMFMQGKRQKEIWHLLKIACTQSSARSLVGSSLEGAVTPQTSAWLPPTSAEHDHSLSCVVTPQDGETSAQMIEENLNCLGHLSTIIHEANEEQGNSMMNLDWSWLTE
Test: IKK heterodimer resin enzyme assay
Format: biochemical
Details: Table 1; read-out: HetD (IKK heterodimer assay values expressed as IC50)
Excerpt: cDNAs of human IKK1 and IKK2 were amplified by reverse transcriptase-polymerase chain reaction from human placental RNA (Clonetech). hIKK1 was subcloned into pFastBac HTa (Life Technologies) and expressed as N-terminal His6-tagged fusion protein. The hIKK2 cDNA was amplified using a reverse oligonucleotide primer which incorporated the peptide sequence for a FLAG-epitope tag at the C-terminus of the IKK2 coding region (DYKDDDDKD). The hIKK2:FLAG cDNA was subcloned into the baculovirus vector pFastBac. The rhIKK2 ([…]) mutant was constructed in the same vector used for wild type rhIKK2 using a QuikChange™ mutagenesis kit (Stratagene). Viral stocks of each construct were used to infect insect cells grown in 40L suspension culture. […] Cell lysates were stored at −80° C. until purification of the recombinant proteins was undertaken as described below.
Isolation of rhIKK1/IKK2 Heterodimer
The heterodimer enzyme was produced by coinfection in a baculovirus system (FLAG IKK2/IKK1 His; MOI=0.1 and I=72 hrs). Infected cells were centrifuged and the cell pellet (10.0 g) was suspended in 50 ml of buffer A. The protein suspension was microfluidized and centrifuged at 100,000×g for 45 min. Imidazole was added to the supernatant to a final concentration of 10 mM. The protein was allowed to bind 25 ml of Ni-NTA resin by mixing for 2 hrs. The protein-resin slurry was poured into a 25 ml column and washed with 250 ml of buffer A containing 10 mM imidazole followed by 125 ml of buffer A containing 50 mM imidazole. Buffer A, containing 300 mM imidazole, was then used to elute the protein. A 75 ml pool was collected and NP-40 was added to a final concentration of 0.1%. The protein solution was then dialyzed against buffer B. The dialyzed heterodimer enzyme was then allowed to bind to 25 ml of anti-FLAG M2 agarose affinity gel overnight with constant mixing. The protein-resin slurry was then centrifuged for 5 min at 2,000 rpm. The supernatant was collected and the resin re-suspended in 100 ml of buffer C containing 0.1% NP-40. The resin was washed with 375 ml of buffer C containing 0.1% NP-40. The protein-resin was poured into a 25 ml column and the enzyme eluted using buffer B containing FLAG peptide. Enzyme fractions (100 ml) were collected and concentrated to 20 ml using an Amicon membrane with molecular weight cut-off of 30 kDa. Bovine serum albumin was added to the concentrated enzyme to final concentration of 0.1%. The enzyme was then aliquoted and stored at −80° C.
IKK Heterodimer Resin Enzyme Assay
IKK heterodimer kinase activity was measured using a biotinylated IκBα peptide (Gly-Leu-Lys-Lys-Glu-Arg-Leu-Leu-Asp-Asp-Arg-His-Asp-Ser32-Gly-Leu-Asp-Ser36-Met-Lys-Asp-Glu-Glu) (American Peptide Co.). 20 ul of the standard reaction mixture contained 5 μM biotinylated IκBα peptide, 0.1 μCi/reaction [γ-^33P] ATP (Amersham) (about 1×10^5 cpm), 1 μM ATP (Sigma), 1 mM DTT (Sigma), 2 mM MgCl2 (Sigma), 2 mM MnCl2 (Sigma), 10 mM NaF (Sigma), 25 mM Hepes (Sigma) buffer, pH 7.6 and 20 μl enzyme solution and 10 μl inhibitor in a final volume of 50 μl. After incubation at 25° C. for 30 min, 150 μl resin (Dowex anion-exchange resin AG1X8 200-400 mesh) in 900 mM formate, pH 3.0 was added to each well to stop the reaction. Resin was allowed to settle for one hour and 50 ul of supernatant was removed to a Micolite-2 flat bottom plate (Dynex). 150 μl of scintillation fluid (Microscint 40) (Packard) was added to each well. Incorporation of [γ-^33P] ATP was measured using a Top-Count NXT (Packard).

Compound	IC50 [µM]
CCOC(=O)c1nn(-c2ccc(OOSN)cc2)c2c1SCc1ccccc1-2 [Example 9, ethyl 1-{4-[(aminothio)peroxy]phenyl}-1,5-dihydroisothiochromeno[4,3-c]pyrazole-3-carboxylate]	> 100
NSOOc1ccc(-n2nc(C(N)=O)c3c2-c2ccccc2CS3)cc1 [Example 10, 1-{4-[(aminothio)peroxy]phenyl}-1,5-dihydroisothiochromeno[4,3-c]pyrazole-3-carboxamide]	> 100
NSOOc1ccc(-n2nc(C(N)=O)c3c2-c2ccc4c(c2CS3)OCO4)cc1 [Example 11, 8-{4-[(aminothio)peroxy]phenyl}-4,8-dihydro[1,3]dioxolo[7,8]isothiochromeno[4,3-c]pyrazole-6-carboxamide]	> 100
CCOC(=O)c1nn(-c2ccc(S(N)(=O)=O)cc2)c2c1CNc1ccccc1-2 [Example 12, ethyl 1-[4-(aminosulfonyl)phenyl]-4,5-dihydro-1H-pyrazolo[4,3-c]quinoline-3-carboxylate]	> 100
CCOC(=O)c1nn(-c2ccc(S(N)(=O)=O)cc2)c2c1CN(S(=O)(=O)c1ccc(C)cc1)c1ccccc1-2 [Example 14, ethyl 1-[4-(aminosulfonyl)phenyl]-5-[(4-methylphenyl)sulfonyl]-4,5-dihydro-1H-pyrazolo[4,3-c]quinoline-3-carboxylate]	> 100
Cc1ccc(S(=O)(=O)N2Cc3c(C(N)=O)nn(-c4ccc(S(N)(=O)=O)cc4)c3-c3ccccc32)cc1 [Example 15, 1-[4-(aminosulfonyl)phenyl]-5-[(4-methylphenyl)sulfonyl]-4,5-dihydro-1H-pyrazolo[4,3-c]quinoline-3-carboxamide]	> 100

— patent US7211597B2, “Substituted pyrazolyl compounds for the treatment of inflammation” (priority 2001, dated 2007)
